Measurements reported in ChEMBL document CHEMBL4265900, “Discovery of the bifunctional modulator of angiotensin II type 1 receptor (AT1R) and PPARγ derived from the AT1R antagonist, Fimasartan” (Bioorg Med Chem Lett, 2018).
The source made the active and inactive calls. The rule behind the calls is not given here.

What was measured:
[1] = target: T1, Type-1 angiotensin II receptor (Homo sapiens) (UniProt P30556); assay: Antagonist activity at type-1 angiotensin 2 receptor (unknown origin) at 20 nM by calcium mobilizing assay relative to fimasartan; format: functional
T1 sequence (whole entry): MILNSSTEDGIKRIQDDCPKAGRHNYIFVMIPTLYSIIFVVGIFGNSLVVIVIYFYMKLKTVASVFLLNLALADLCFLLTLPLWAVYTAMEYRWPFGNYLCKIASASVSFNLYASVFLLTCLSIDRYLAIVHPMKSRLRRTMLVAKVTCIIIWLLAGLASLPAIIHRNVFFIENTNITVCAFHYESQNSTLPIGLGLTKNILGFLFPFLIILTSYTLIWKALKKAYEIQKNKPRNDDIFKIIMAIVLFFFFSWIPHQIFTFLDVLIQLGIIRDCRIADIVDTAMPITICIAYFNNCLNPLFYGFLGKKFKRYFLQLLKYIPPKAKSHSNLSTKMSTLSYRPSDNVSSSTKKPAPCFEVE

[2] = target: T2, Peroxisome proliferator-activated receptor gamma (Homo sapiens) (UniProt P37231); assay: Agonist activity at PPARgamma (unknown origin) at 1 uM relative to telmisartan
T2 sequence (whole entry): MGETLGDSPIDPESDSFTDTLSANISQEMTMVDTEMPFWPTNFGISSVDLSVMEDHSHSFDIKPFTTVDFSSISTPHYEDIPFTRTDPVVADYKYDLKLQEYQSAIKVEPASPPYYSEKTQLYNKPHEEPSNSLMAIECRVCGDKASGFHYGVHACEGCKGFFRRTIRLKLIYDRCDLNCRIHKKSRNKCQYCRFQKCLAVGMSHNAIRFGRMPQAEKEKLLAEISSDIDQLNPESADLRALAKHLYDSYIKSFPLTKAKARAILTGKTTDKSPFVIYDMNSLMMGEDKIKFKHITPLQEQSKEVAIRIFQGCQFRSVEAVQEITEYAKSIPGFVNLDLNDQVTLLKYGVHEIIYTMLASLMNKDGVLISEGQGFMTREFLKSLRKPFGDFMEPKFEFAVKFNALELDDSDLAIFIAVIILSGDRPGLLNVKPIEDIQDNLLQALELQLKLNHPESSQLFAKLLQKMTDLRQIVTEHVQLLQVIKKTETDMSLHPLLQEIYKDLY

[3] = target: T3, Type-1 angiotensin II receptor (Homo sapiens, UniProt P30556); assay: Antagonist activity at type-1 angiotensin 2 receptor (unknown origin) by calcium mobilizing assay; format: functional
T3 sequence (P30556 whole entry): T1 sequence (whole entry)

Mus musculus [4] = assay: Antidiabetic activity in db/db mouse model assessed as suppression of blood glucose increase at 20 mg/kg qd, po administered for 13 days; format: functional, organism-based
Mus musculus [5] = assay: Toxicity in db/db mouse model assessed as suppression of weight gain at 20 mg/kg, po qd measured after 11 days; format: organism-based; conditions: in vivo, 264 h
[6] = Half life in rat at 10 mg/kg, po; format: ADME, organism-based; conditions: in vivo
[7] = Tmax in rat at 10 mg/kg, po; format: ADME, organism-based; conditions: in vivo
[8] = Cmax in rat at 10 mg/kg, po; format: ADME, organism-based; design: dose 10 mg/kg, route oral; conditions: in vivo
[9] = Cmax in mouse at 20 mg/kg, po; format: ADME, organism-based; design: dose 20 mg/kg, route oral; conditions: in vivo
[10] = AUClast in rat at 10 mg/kg, po; format: ADME, organism-based; design: dose 10 mg/kg, route oral, time 0 - last; conditions: in vivo
[11] = AUClast in mouse at 20 mg/kg, po; format: ADME, organism-based; design: dose 20 mg/kg, route oral, time 0 - last; conditions: in vivo
Rattus norvegicus [12] = assay: Antihypertensive activity in angiotensin 2 induced hypertension rat model at 3 mg/kg, po measured until 8 hrs post dose; format: functional, organism-based
Rattus norvegicus [13] = assay: Antihypertensive activity in angiotensin 2 induced hypertension rat model assessed as time required for 50% reduction in blood pressure at 3 mg/kg, po; format: functional
[14] = target: T3, Type-1 angiotensin II receptor; assay: Antagonist activity at type-1 angiotensin 2 receptor (unknown origin) by beta-arrestin recruitment assay; format: functional
[15] = target: T2, Peroxisome proliferator-activated receptor gamma (Homo sapiens); assay: Agonist activity at PPARgamma (unknown origin) at 1 uM relative to pioglitazone
[16] = target: T4, Peroxisome proliferator-activated receptor gamma (Homo sapiens, UniProt P37231); assay: Agonist activity at PPARgamma (unknown origin)
T4 sequence (P37231 whole entry): T2 sequence (whole entry)

[17] = target: Voltage-gated inwardly rectifying potassium channel KCNH2 (Homo sapiens, UniProt Q12809); assay: Inhibition of human ERG
[18] = Stability in mouse liver microsomes assessed as compound remaining after 30 mins; format: ADME, microsome; conditions: read-out: Stability
[19] = Stability in rat liver microsomes assessed as compound remaining after 30 mins; format: ADME, microsome; conditions: read-out: Stability
[20] = Stability in dog liver microsomes assessed as compound remaining after 30 mins; format: ADME, Canis lupus familiaris, microsome; conditions: read-out: Stability
[21] = Stability in human liver microsomes assessed as compound remaining after 30 mins; format: ADME, microsome; conditions: read-out: Stability
CYP1A2 = target: T5, CYP1A2 (Homo sapiens, UniProt P05177); assay: Inhibition of CYP1A2 (unknown origin) assessed as remaining activity at 10 uM; format: ADME; conditions: read-out: Activity
T5 sequence (P05177 whole entry): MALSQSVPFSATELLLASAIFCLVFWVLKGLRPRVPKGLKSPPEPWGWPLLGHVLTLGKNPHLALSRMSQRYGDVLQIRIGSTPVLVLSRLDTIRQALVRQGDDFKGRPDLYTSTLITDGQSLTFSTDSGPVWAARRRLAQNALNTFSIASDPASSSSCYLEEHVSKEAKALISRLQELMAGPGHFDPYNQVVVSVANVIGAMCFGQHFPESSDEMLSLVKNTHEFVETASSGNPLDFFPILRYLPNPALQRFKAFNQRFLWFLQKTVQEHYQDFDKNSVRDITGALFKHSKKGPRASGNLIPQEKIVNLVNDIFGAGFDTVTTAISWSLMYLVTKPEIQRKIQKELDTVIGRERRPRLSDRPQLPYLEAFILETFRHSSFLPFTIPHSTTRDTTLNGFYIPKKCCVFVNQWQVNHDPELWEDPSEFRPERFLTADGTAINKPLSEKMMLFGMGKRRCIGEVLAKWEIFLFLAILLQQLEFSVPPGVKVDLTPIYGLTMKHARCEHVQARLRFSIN

CYP2C9 = CYP2C9 (Homo sapiens, UniProt P11712); assay: Inhibition of CYP2C9 (unknown origin) assessed as remaining activity at 10 uM; format: ADME; conditions: read-out: Activity
CYP2C19 = CYP2C19 (Homo sapiens, UniProt P33261); assay: Inhibition of CYP2C19 (unknown origin) assessed as remaining activity at 10 uM; format: ADME; conditions: read-out: Activity
CYP2D6 = CYP2D6 (Homo sapiens, UniProt P10635); assay: Inhibition of CYP2D6 (unknown origin) assessed as remaining activity at 10 uM; format: ADME; conditions: read-out: Activity
CYP3A4 = CYP3A4 (Homo sapiens, UniProt P08684); assay: Inhibition of CYP3A4 (unknown origin) assessed as remaining activity at 10 uM; format: ADME; conditions: read-out: Activity
[22] = Half life in rat at 60 mg/kg, po; format: ADME, organism-based; conditions: in vivo
[23] = Half life in mouse at 60 mg/kg, po; format: ADME, organism-based; conditions: in vivo
[24] = Tmax in rat at 60 mg/kg, po; format: ADME, organism-based; conditions: in vivo
[25] = Tmax in mouse at 60 mg/kg, po; format: ADME, organism-based; conditions: in vivo
[26] = Cmax in rat at 60 mg/kg, po; format: ADME, organism-based; design: dose 60 mg/kg, route oral; conditions: in vivo
[27] = Cmax in mouse at 60 mg/kg, po; format: ADME, organism-based; design: dose 60 mg/kg, route oral; conditions: in vivo
[28] = AUClast in rat at 60 mg/kg, po; format: ADME, organism-based; design: dose 60 mg/kg, time 0 - last, route oral; conditions: in vivo
[29] = AUClast in mouse at 60 mg/kg, po; format: ADME, organism-based; design: dose 60 mg/kg, time 0 - last, route oral; conditions: in vivo
Rattus norvegicus [30] = assay: Antihypertensive activity in angiotensin 2 induced hypertension rat model at 30 mg/kg, po measured until 8 hrs post dose; format: functional, organism-based
Rattus norvegicus [31] = assay: Antihypertensive activity in angiotensin 2 induced hypertension rat model at 30 mg/kg, po measured after 24 hrs relative to fimasartan; format: functional
Rattus norvegicus [32] = assay: Antihypertensive activity in angiotensin 2 induced hypertension rat model assessed as time required for 50% reduction in blood pressure at 30 mg/kg, po; format: functional
Mus musculus [33] = assay: Antidiabetic activity in db/db mouse model assessed as suppression of blood glucose increase at 60 mg/kg qd, po administered for 13 days; format: functional, organism-based
Mus musculus [34] = assay: Toxicity in db/db mouse model assessed as suppression of weight gain at 60 mg/kg, po qd measured after 11 days; format: organism-based; conditions: in vivo, 264 h
[35] = Ratio of AUClast in rat at 60 mg/kg, po to AUClast in mouse at 60 mg/kg, po; format: ADME, organism-based; conditions: in vivo

Sequence of CYP3A4 (P08684 whole entry): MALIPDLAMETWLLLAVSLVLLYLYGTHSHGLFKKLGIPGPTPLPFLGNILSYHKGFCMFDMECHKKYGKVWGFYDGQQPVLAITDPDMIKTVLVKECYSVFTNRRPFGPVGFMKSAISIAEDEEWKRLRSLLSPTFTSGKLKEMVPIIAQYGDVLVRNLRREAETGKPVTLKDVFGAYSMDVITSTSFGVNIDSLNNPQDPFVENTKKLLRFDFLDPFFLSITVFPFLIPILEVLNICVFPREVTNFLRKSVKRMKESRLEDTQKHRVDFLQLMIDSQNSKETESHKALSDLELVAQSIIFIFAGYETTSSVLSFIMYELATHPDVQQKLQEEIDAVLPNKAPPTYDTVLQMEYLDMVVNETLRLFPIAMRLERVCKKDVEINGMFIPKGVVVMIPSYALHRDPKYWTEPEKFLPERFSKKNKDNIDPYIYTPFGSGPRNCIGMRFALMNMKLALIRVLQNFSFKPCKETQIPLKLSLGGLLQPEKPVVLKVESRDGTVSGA
Sequence of CYP2C19 (P33261 whole entry): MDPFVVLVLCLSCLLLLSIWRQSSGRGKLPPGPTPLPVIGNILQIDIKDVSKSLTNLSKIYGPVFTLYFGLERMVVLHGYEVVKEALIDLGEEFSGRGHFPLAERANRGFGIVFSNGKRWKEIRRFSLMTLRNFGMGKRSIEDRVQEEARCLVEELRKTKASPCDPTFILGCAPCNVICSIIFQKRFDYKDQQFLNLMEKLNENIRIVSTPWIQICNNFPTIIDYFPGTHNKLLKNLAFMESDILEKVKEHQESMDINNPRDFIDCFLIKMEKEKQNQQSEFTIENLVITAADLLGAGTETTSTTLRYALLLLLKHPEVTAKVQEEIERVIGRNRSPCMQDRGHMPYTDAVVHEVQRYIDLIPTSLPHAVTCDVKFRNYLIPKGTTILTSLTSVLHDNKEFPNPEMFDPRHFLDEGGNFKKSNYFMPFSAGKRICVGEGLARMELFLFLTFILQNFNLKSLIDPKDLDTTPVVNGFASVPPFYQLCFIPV
Sequence of CYP2D6 (P10635 whole entry): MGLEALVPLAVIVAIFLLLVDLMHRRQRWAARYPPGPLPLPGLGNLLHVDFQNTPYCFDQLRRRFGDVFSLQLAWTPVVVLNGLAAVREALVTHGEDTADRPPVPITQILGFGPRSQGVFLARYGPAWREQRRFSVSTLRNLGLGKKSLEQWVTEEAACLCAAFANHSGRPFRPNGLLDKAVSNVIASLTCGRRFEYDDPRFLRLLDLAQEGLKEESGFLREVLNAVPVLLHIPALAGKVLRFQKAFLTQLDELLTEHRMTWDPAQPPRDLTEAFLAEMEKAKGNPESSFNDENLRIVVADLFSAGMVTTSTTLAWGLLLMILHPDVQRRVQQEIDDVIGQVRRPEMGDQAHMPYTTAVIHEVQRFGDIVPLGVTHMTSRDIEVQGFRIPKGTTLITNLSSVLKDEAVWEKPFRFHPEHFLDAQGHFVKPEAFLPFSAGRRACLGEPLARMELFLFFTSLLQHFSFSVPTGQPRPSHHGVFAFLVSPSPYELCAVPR
Sequence of CYP2C9 (P11712 whole entry): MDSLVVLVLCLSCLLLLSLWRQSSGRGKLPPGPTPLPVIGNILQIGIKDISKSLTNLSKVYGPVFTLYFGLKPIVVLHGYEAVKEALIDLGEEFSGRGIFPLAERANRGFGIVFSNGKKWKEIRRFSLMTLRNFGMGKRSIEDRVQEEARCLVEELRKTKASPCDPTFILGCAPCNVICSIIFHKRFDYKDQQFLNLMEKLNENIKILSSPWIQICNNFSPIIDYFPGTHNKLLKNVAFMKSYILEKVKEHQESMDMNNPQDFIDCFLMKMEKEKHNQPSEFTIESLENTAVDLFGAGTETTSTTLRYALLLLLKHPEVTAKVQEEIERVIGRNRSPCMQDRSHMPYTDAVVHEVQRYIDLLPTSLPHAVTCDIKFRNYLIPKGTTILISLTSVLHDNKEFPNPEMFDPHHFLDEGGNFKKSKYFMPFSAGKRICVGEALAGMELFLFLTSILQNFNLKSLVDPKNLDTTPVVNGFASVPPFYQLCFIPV
Sequence of Voltage-gated inwardly rectifying potassium channel KCNH2 (Q12809 whole entry): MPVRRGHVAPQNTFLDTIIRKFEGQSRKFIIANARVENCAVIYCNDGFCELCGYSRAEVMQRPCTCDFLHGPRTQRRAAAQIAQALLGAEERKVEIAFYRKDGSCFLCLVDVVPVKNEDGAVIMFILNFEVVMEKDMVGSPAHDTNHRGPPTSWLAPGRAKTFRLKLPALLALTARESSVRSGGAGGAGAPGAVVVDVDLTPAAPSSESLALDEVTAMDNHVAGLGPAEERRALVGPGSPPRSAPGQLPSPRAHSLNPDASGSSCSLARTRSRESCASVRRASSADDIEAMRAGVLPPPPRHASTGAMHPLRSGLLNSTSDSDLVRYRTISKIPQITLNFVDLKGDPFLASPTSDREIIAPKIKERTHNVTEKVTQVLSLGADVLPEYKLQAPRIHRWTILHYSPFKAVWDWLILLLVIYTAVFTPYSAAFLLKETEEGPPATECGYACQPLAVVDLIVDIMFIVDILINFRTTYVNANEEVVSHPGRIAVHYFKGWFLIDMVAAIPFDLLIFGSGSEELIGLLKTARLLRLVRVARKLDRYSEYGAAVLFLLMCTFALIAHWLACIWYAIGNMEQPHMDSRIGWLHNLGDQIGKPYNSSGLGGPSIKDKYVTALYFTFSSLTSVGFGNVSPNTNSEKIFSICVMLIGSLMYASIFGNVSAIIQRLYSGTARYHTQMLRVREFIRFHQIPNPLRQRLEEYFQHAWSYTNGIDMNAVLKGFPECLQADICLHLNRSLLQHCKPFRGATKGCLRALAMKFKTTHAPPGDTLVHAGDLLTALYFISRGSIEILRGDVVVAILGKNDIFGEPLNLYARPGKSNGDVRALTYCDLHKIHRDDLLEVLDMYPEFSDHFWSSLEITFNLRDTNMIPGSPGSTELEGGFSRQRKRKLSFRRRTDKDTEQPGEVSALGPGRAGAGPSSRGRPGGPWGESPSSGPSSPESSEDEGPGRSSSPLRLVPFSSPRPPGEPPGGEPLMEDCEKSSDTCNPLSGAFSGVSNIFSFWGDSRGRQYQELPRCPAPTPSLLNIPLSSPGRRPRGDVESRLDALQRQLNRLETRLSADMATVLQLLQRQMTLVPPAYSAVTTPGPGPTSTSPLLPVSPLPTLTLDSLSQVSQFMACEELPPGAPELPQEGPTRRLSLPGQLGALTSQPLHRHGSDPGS

With `CCCCc1nc(C)c(CC(=S)N(C)C)c(=O)n1Cc1ccc(-c2ccccc2C(=O)O)cc1` the inhibition [1] was 80% and the Activity [2] was 140%.

In the case of `Cc1nc(CC(C)C)n(Cc2ccc(-c3ccccc3-c3noc(=O)[nH]3)cc2)c(=O)c1CC(=S)N(C)C`, the inhibition [1] is reported as 0% and the Activity [2] is reported as 70%.

`CCCCc1nc(C)c(CC(=S)N2[C@H](C)CC[C@H]2C)c(=O)n1Cc1ccc(-c2ccccc2-c2noc(=O)[nH]2)cc1` showed an IC50 [3] of 1.8 nM and an Activity [2] of 100%.

For `CCCc1nc(C)c(CC(=S)N(C)C)c(=O)n1Cc1ccc(-c2ccccc2-c2noc(=O)[nH]2)cc1`, the IC50 [3] was 4.7 nM and the Activity [2] was 100%.

In the case of `CCc1ccc(CCOc2ccc(CC3SC(=O)NC3=O)cc2)nc1` (stereo not given) [PIOGLITAZONE], the Activity (Mus musculus [4]) is reported as “Active” and the Activity (Mus musculus [5]) is reported as “Non-Toxic”.

Compound `CCCCc1nc(C)c(CC(=S)N(C)C)c(=O)n1Cc1ccc(-c2ccccc2-c2nnn[nH]2)cc1` [FIMASARTAN] has an IC50 [3] of 4.5 nM, an Activity [2] of 0% and a half-life [6] of 3.6 h. It also gave a Tmax [7] of 7.8 min, a Cmax [8] of 518 ng/mL and a Cmax [9] of 145 ng/mL. For the same compound, the AUC(0-t) [10] was 1930 ng·h/mL, the AUC(0-t) [11] was 254 ng·h/mL and the Activity (Rattus norvegicus [12]) was “Active”. It also gave a Time (Rattus norvegicus [13]) of 22 h.

`CCCCc1nc(C2CC2)c(CC(=S)N2CCCC2)c(=O)n1Cc1ccc(-c2ccccc2-c2noc(=O)[nH]2)cc1` showed an inhibition [1] of 63% and an Activity [2] of 79%.

Compound `CCCCc1nc(C)c(CC(=S)N2CCOCC2)c(=O)n1Cc1ccc(-c2ccccc2-c2noc(=O)[nH]2)cc1` has an IC50 [3] of 5.6 nM and an Activity [2] of 83%.

In the case of `CCCCc1nc(C)c(CC(=S)N2CCCC2C)c(=O)n1Cc1ccc(-c2ccccc2-c2noc(=O)[nH]2)cc1` (stereo not given), the IC50 [3] is reported as 1.2 nM and the Activity [2] is reported as 107%.

Compound `CCCCc1nc(C(C)C)c(CC(=S)N2CCCC2)c(=O)n1Cc1ccc(-c2ccccc2-c2noc(=O)[nH]2)cc1` has an IC50 [3] of 2.2 nM, an Activity [2] of 156% and an IC50 [14] of 10.5 nM. For the same compound, the Activity [15] was 66%, the EC50 [16] was 3100 nM and the IC50 [17] was 7000 nM. The remaining at 0.5 h [18] was 11%, the remaining at 0.5 h [19] was 24% and the remaining at 0.5 h [20] was 62%. For the same compound, the remaining at 0.5 h [21] was 13%, the activity at 10 µM (CYP1A2) was 97% and the activity at 10 µM (CYP2C9) was 36%. For the same compound, the activity at 10 µM (CYP2C19) was 84%, the activity at 10 µM (CYP2D6) was 99% and the activity at 10 µM (CYP3A4) was 62%. The half-life [22] was 4.73 h, the half-life [23] was 3.67 h and the Tmax [24] was 1.17 h. The Tmax [25] was 0.5 h, the Cmax [26] was 2570 ng/mL and the Cmax [27] was 1860 ng/mL. The AUC(0-t) [28] was 13400 ng·h/mL, the AUC(0-t) [29] was 2570 ng·h/mL and the Activity (Rattus norvegicus [30]) was “Active”. The Activity (Rattus norvegicus [31]) was 50%, the Time (Rattus norvegicus [32]) was 16 h and the Activity (Mus musculus [33]) was “Active”. For the same compound, the Activity (Mus musculus [34]) was “Non-Toxic” and the “Ratio AUC” value [35] was 4.
